Results: US20020086895A1, “Methods of treating fungal infections” (priority 1985, published 2002)

Legend:
C. albicans = assay: Antifungal screen of matrix-synthesis aurones in 96-well plates, C. albicans; format: cell-based, Candida albicans
Procedure: (§1) Thirty-eight 96-well plates were prepared with the above samples and tested against both C. albicans and A. fumigatus at either 8 μg/ml or 12.5 μg/ml. Plates with high activity were retested at the same concentration to confirm activity.
(§2) These compounds have formulae where W′ is OH, V is 3′,4′-(1,1-dimethylpropyloxy) to form a dihydropyran series, and X is selected from 3,4-dimethoxyphenyl, 4-t-butylphenyl, 2(prop-2-enyloxy)phenyl, 3-phenoxyphenyl, 3-ethoxy-4-hydroxyphenyl, 6-cyclohexenyl, and norborn-4-yl.

A. fumigatus = assay: Antifungal screen of matrix-synthesis aurones in 96-well plates, A. fumigatus; format: cell-based, Aspergillus fumigatus
Procedure: as §1, §2

CC1(C)CCc2c(cc3c(c2O)C(=O)C(=Cc2ccc(O)c(O)c2)O3)O1
CA percent inhibition (C. albicans; @8 μg/ml): 87% | AF percent inhibition (A. fumigatus; @8 μg/ml): 0%

C=CCc1c(O)cc2c(c1O)C(=O)C(=Cc1cc(C)cc(C)c1)O2
CA percent inhibition (C. albicans; @8 μg/ml): CA 42% AF | AF percent inhibition (A. fumigatus; @8 μg/ml): #81% @8 μg/ml

CC(C)=CCc1c(O)cc2c(c1O)C(=O)C(=Cc1cccc(O)c1O)O2
CA percent inhibition (C. albicans; @12.5 μg/ml): 94% | AF percent inhibition (A. fumigatus; @12.5 μg/ml): 31%

CCOc1ccccc1C=C1Oc2cc(O)cc(O)c2C1=O
AF percent inhibition (A. fumigatus; @12.5 μg/ml): CA 0% AF 0% @12.5 μg/ml

COc1ccccc1C=C1Oc2cc(O)c(CC=C(C)C)c(O)c2C1=O
CA percent inhibition (C. albicans; @12.5 μg/ml): 15% | AF percent inhibition (A. fumigatus; @12.5 μg/ml): 39%

CCOc1ccc(C=C2Oc3cc(O)cc(O)c3C2=O)cc1OC
AF percent inhibition (A. fumigatus; @12.5 μg/ml): CA 0% AF 0% @12.5 μg/ml

CCc1ccc(C=C2Oc3cc4c(c(O)c3C2=O)CCC(C)(C)O4)cc1
CA percent inhibition (C. albicans; @8 μg/ml): 73% | AF percent inhibition (A. fumigatus; @8 μg/ml): 68%

COc1ccccc1C=C1Oc2cc3c(c(O)c2C1=O)CCC(C)(C)O3
CA percent inhibition (C. albicans; @8 μg/ml): 76% | AF percent inhibition (A. fumigatus; @8 μg/ml): 70%

Cc1cc(C)c(C=C2Oc3cc(O)cc(O)c3C2=O)c(C)c1
CA percent inhibition (C. albicans; @12.5 μg/ml): 6% | AF percent inhibition (A. fumigatus; @12.5 μg/ml): 48%

Cc1cccc(C)c1C=C1Oc2cc3c(c(O)c2C1=O)CCC(C)(C)O3
CA percent inhibition (C. albicans; @8 μg/ml): 82% | AF percent inhibition (A. fumigatus; @8 μg/ml): 97%

CC(C)=CCc1c(O)cc2c(c1O)C(=O)C(=Cc1c(C)cc(C)cc1C)O2
CA percent inhibition (C. albicans; @12.5 μg/ml): 51% | AF percent inhibition (A. fumigatus; @12.5 μg/ml): 53%

C=CCc1c(O)cc2c(c1O)C(=O)C(=Cc1ccc(Oc3ccccc3)cc1)O2
CA percent inhibition (C. albicans; @8 μg/ml): 52% | AF percent inhibition (A. fumigatus; @8 μg/ml): 68%

Cc1cc(C)cc(C=C2Oc3cc4c(c(O)c3C2=O)CCC(C)(C)O4)c1
CA percent inhibition (C. albicans; @8 μg/ml): CA 0% AF | AF percent inhibition (A. fumigatus; @8 μg/ml): #11% @8 μg/ml

C=CCc1c(O)cc2c(c1O)C(=O)C(=Cc1ccccc1OCC)O2
CA percent inhibition (C. albicans; @8 μg/ml): 22% | AF percent inhibition (A. fumigatus; @8 μg/ml): 52%

CC(C)=CCc1c(O)cc2c(c1O)C(=O)C(=Cc1cc(C(C)(C)C)c(O)c(C(C)(C)C)c1)O2
CA percent inhibition (C. albicans; @12.5 μg/ml): 47% | AF percent inhibition (A. fumigatus; @12.5 μg/ml): 48%

CC(C)=CCc1c(O)cc2c(c1O)C(=O)C(=Cc1c(C)cccc1C)O2
CA percent inhibition (C. albicans; @12.5 μg/ml): 7% | AF percent inhibition (A. fumigatus; @12.5 μg/ml): 0%

CC(C)=CCc1c(O)cc2c(c1O)C(=O)C(=Cc1ccccc1C)O2
CA percent inhibition (C. albicans; @12.5 μg/ml): 11% | AF percent inhibition (A. fumigatus; @12.5 μg/ml): 0%

CC1(C)CCc2c(cc3c(c2O)C(=O)C(=Cc2ccc(Oc4ccccc4)cc2)O3)O1
CA percent inhibition (C. albicans; @8 μg/ml): 80% | AF percent inhibition (A. fumigatus; @8 μg/ml): 76%

Cc1cccc(C)c1C=C1Oc2cc(O)cc(O)c2C1=O
AF percent inhibition (A. fumigatus; @12.5 μg/ml): CA 0% AF 0% @12.5 μg/ml

CCc1ccc(C=C2Oc3cc(O)c(CC=C(C)C)c(O)c3C2=O)cc1
CA percent inhibition (C. albicans; @12.5 μg/ml): 31% | AF percent inhibition (A. fumigatus; @12.5 μg/ml): 41%

C=CCc1c(O)cc2c(c1O)C(=O)C(=Cc1ccc(F)cc1F)O2
CA percent inhibition (C. albicans; @8 μg/ml): 53% | AF percent inhibition (A. fumigatus; @8 μg/ml): 96%

CC1(C)CCc2c(cc3c(c2O)C(=O)C(=Cc2cc(C(C)(C)C)c(O)c(C(C)(C)C)c2)O3)O1
CA percent inhibition (C. albicans; @8 μg/ml): 69% | AF percent inhibition (A. fumigatus; @8 μg/ml): 68%

O=C1C(=Cc2ccc(F)cc2F)Oc2cc(O)cc(O)c21
CA percent inhibition (C. albicans; @12.5 μg/ml): 0% | AF percent inhibition (A. fumigatus; @12.5 μg/ml): 43%

O=C1C(=Cc2cccc(O)c2O)Oc2cc(O)cc(O)c21
CA percent inhibition (C. albicans; @12.5 μg/ml): 79% | AF percent inhibition (A. fumigatus; @12.5 μg/ml): 27%

C=CCOc1ccccc1C=C1Oc2cc(O)c(CC=C)c(O)c2C1=O
CA percent inhibition (C. albicans; @8 μg/ml): 53% | AF percent inhibition (A. fumigatus; @8 μg/ml): 96%

Cc1ccccc1C=C1Oc2cc3c(c(O)c2C1=O)CCC(C)(C)O3
CA percent inhibition (C. albicans; @8 μg/ml): 13% | AF percent inhibition (A. fumigatus; @8 μg/ml): 34%

CCOc1ccccc1C=C1Oc2cc3c(c(O)c2C1=O)CCC(C)(C)O3
CA percent inhibition (C. albicans; @8 μg/ml): 80% | AF percent inhibition (A. fumigatus; @8 μg/ml): 71%

CC(C)=CCc1c(O)cc2c(c1O)C(=O)C(=Cc1cc(C)cc(C)c1)O2
CA percent inhibition (C. albicans; @12.5 μg/ml): CA 26% AF | AF percent inhibition (A. fumigatus; @12.5 μg/ml): #13% @12.5 μg/ml

C=CCc1c(O)cc2c(c1O)C(=O)C(=Cc1ccc(O)c(O)c1)O2
CA percent inhibition (C. albicans; @8 μg/ml): CA 0% AF 0% @8 μg/ml | AF percent inhibition (A. fumigatus; @8 μg/ml): CA 0% AF 0% @8 μg/ml

C=CCc1c(O)cc2c(c1O)C(=O)C(=Cc1ccc(CC)cc1)O2
CA percent inhibition (C. albicans; @8 μg/ml): 16% | AF percent inhibition (A. fumigatus; @8 μg/ml): 47%

CC(C)=CCc1c(O)cc2c(c1O)C(=O)C(=Cc1ccc(C)cc1)O2
CA percent inhibition (C. albicans; @12.5 μg/ml): CA 18% AF 18% @12.5 μg/ml | AF percent inhibition (A. fumigatus; @12.5 μg/ml): CA 18% AF 18% @12.5 μg/ml

C=CCc1c(O)cc2c(c1O)C(=O)C(=Cc1ccc(C)cc1)O2
CA percent inhibition (C. albicans; @8 μg/ml): 10% | AF percent inhibition (A. fumigatus; @8 μg/ml): 47%

CC1(C)CCc2c(cc3c(c2O)C(=O)C(=Cc2cccc(O)c2O)O3)O1
CA percent inhibition (C. albicans; @8 μg/ml): 96% | AF percent inhibition (A. fumigatus; @8 μg/ml): 52%

CC(C)(C)c1cc(C=C2Oc3cc(O)cc(O)c3C2=O)cc(C(C)(C)C)c1O
CA percent inhibition (C. albicans; @12.5 μg/ml): 17% | AF percent inhibition (A. fumigatus; @12.5 μg/ml): 35%

C=CCOc1ccccc1C=C1Oc2cc(O)c(CC=C(C)C)c(O)c2C1=O
CA percent inhibition (C. albicans; @12.5 μg/ml): 59% | AF percent inhibition (A. fumigatus; @12.5 μg/ml): 40%

O=C1C(=Cc2ccc(O)c(O)c2)Oc2cc(O)cc(O)c21
CA percent inhibition (C. albicans; @12.5 μg/ml): 95% | AF percent inhibition (A. fumigatus; @12.5 μg/ml): 36%

C=CCc1c(O)cc2c(c1O)C(=O)C(=Cc1ccccc1OC)O2
CA percent inhibition (C. albicans; @8 μg/ml): 20% | AF percent inhibition (A. fumigatus; @8 μg/ml): 62%

Cc1ccc(C=C2Oc3cc4c(c(O)c3C2=O)CCC(C)(C)O4)cc1
CA percent inhibition (C. albicans; @8 μg/ml): 58% | AF percent inhibition (A. fumigatus; @8 μg/ml): 93%

Cc1ccccc1C=C1Oc2cc(O)cc(O)c2C1=O
AF percent inhibition (A. fumigatus; @12.5 μg/ml): CA 0% AF 0% @12.5 μg/ml

CCOc1ccccc1C=C1Oc2cc(O)c(CC=C(C)C)c(O)c2C1=O
CA percent inhibition (C. albicans; @12.5 μg/ml): 25% | AF percent inhibition (A. fumigatus; @12.5 μg/ml): 51%

CC(C)=CCc1c(O)cc2c(c1O)C(=O)C(=Cc1ccc(F)cc1F)O2
CA percent inhibition (C. albicans; @12.5 μg/ml): 0% | AF percent inhibition (A. fumigatus; @12.5 μg/ml): 40%

CC1(C)CCc2c(cc3c(c2O)C(=O)C(=Cc2ccc(O)c(O)c2O)O3)O1
CA percent inhibition (C. albicans; @8 μg/ml): 0% | AF percent inhibition (A. fumigatus; @8 μg/ml): 69%

O=C1C(=Cc2ccc(O)c(O)c2O)Oc2cc(O)cc(O)c21
CA percent inhibition (C. albicans; @12.5 μg/ml): 94% | AF percent inhibition (A. fumigatus; @12.5 μg/ml): 44%

C=CCc1c(O)cc2c(c1O)C(=O)C(=Cc1c(C)cccc1C)O2
CA percent inhibition (C. albicans; @8 μg/ml): 7% | AF percent inhibition (A. fumigatus; @8 μg/ml): 49%

CC(C)=CCc1c(O)cc2c(c1O)C(=O)C(=Cc1ccc(Oc3ccccc3)cc1)O2
AF percent inhibition (A. fumigatus; @12.5 μg/ml): CA 0% AF 0% @12.5 μg/ml

C=CCOc1ccccc1C=C1Oc2cc(O)cc(O)c2C1=O
CA percent inhibition (C. albicans; @12.5 μg/ml): 0% | AF percent inhibition (A. fumigatus; @12.5 μg/ml): 43%

C=CCc1c(O)cc2c(c1O)C(=O)C(=Cc1ccc(OCC)c(OC)c1)O2
CA percent inhibition (C. albicans; @8 μg/ml): 65% | AF percent inhibition (A. fumigatus; @8 μg/ml): 69%

CCOc1ccc(C=C2Oc3cc(O)c(CC=C(C)C)c(O)c3C2=O)cc1OC
CA percent inhibition (C. albicans; @12.5 μg/ml): 25% | AF percent inhibition (A. fumigatus; @12.5 μg/ml): 49%

C=CCc1c(O)cc2c(c1O)C(=O)C(=Cc1ccc(O)c(O)c1O)O2
CA percent inhibition (C. albicans; @8 μg/ml): 69% | AF percent inhibition (A. fumigatus; @8 μg/ml): 35%

CC1(C)CCc2c(cc3c(c2O)C(=O)C(=Cc2ccc(F)cc2F)O3)O1
CA percent inhibition (C. albicans; @8 μg/ml): 0% | AF percent inhibition (A. fumigatus; @8 μg/ml): 94%

C=CCc1c(O)cc2c(c1O)C(=O)C(=Cc1cc(C(C)(C)C)c(O)c(C(C)(C)C)c1)O2
CA percent inhibition (C. albicans; @8 μg/ml): 49% | AF percent inhibition (A. fumigatus; @8 μg/ml): 60%

Cc1ccc(C=C2Oc3cc(O)cc(O)c3C2=O)cc1
AF percent inhibition (A. fumigatus; @12.5 μg/ml): CA 0% AF 0% @12.5 μg/ml

COc1ccccc1C=C1Oc2cc(O)cc(O)c2C1=O
AF percent inhibition (A. fumigatus; @12.5 μg/ml): CA 0% AF 0% @12.5 μg/ml

CCc1ccc(C=C2Oc3cc(O)cc(O)c3C2=O)cc1
AF percent inhibition (A. fumigatus; @12.5 μg/ml): CA 0% AF 0% @12.5 μg/ml
